{"source": "patent US4087390A", "about": "“Somatostatin analogs and intermediates thereto” (Eli Lilly and Company, priority 1977, dated 1978)", "key": {"[1]": {"test_system": "gastric HCl secretion induced by the C-terminal tetrapeptide of gastrin", "assay": "in vivo inhibition of gastric acid secretion in dogs with chronic fistula and Heidenhain pouch", "experimental": "D-Val^2, D-Trp^8 -somatostatin was tested in dogs for its in vivo inhibition of gastric acid secretion. In six dogs with chronic fistula and Heidenhain pouch, gastric HCl secretion was induced by infusion of the C-terminal tetrapeptide of gastrin at 0.5 μg/kg-hr. Each dog served as its own control, receiving on a separate day only the tetrapeptide. On another day, the six dogs received the tetrapeptide, and after one hour of steady state secretion of HCl, D-Val^2, D-Trp^8 -somatostatin was infused at 0.25 μg/kg-hr. for one hour. Collection of gastric acid samples was continued for an additional 1.5 hours at 15 minute intervals. The samples were titrated to pH 7 with an automatic titrator. The maximal inhibitory effect of the D-Val^2, D-Trp^8 -somatostatin was extrapolated against the dose-response curve of somatostatin, and the relative potency of the analog to that of somatostatin is expressed as percent activity. D-Val^2, D-Trp^8 -somatostatin inhibited steady state acid secretion induced by the C-terminal tetrapeptide of gastrin by 61.9 ± 3.4% standard error of mean. This effect is equivalent to that of 0.324 μg/kg-hr. of somatostatin. Its activity relative to that of somatostatin thus is 130%."}, "[2]": {"test_system": "glucagon and insulin secretion", "assay": "in vivo inhibition of glucagon and insulin secretion upon stimulation with L-alanine", "parameters": "species or system mongrel dogs", "conditions": "intravenous infusion", "experimental": "D-Val^2, D-Trp^8 -somatostatin was tested for its in vivo activity in inhibiting glucagon and insulin secretion upon stimulation with L-alanine. Normal mongrel dogs of either sex were fasted overnight. Control blood samples were obtained, and then an intravenous infusion of saline, somatostatin, or D-Val^2, D-Trp^8 -somatostatin was started. After 30 minutes, L-alanine additionally was administered intravenously for a period of 15 minutes. The infusion of saline, somatostatin, or D-Val^2 D-Trp^8 -somatostatin was continued for 15 minutes after completion of the L-alanine infusion. The infusion of L-alanine caused an abrupt increase in serum concentration of glucagon and insulin which returned to control concentration upon termination of the L-alanine infusion. From the above it was determined that the minimal effective concentration of D-Val^2, D-Trp^8 -somatostatin is about 194 nanograms/kg./min. whereas the minimal effective concentration of somatostatin is 100-200 nanograms/kg./min."}, "gut motility": {"test_system": "gut motility", "assay": "action on gut motility in conscious dogs (intralumenal pressure)", "format": "in vivo", "experimental": "D-Val^2, D-Trp^8 -somatostatin also was tested for its action on gut motility in conscious dogs. Three dogs having intralumenal catheters placed in the antrum, duodenum, and pylorus were used. Pressure changes in the gut lumen were recorded on a Visicorder using strain gauges and miniature light beam galvanometers. After a steady state control was established, D-Val^2, D-Trp^8 -somatostatin was infused intravenously over a ten minute period. […] The minimum effective dose required to increase the pyloric pressure and to decrease the duodenum and antrum pressures was >0.125 to <0.25 μg./kg.-10 minutes."}, "[3]": {"test_system": "secretion from the pancreas induced by secretin and cholecystokinin", "assay": "inhibition of pancreatic secretion in dogs with pancreatic and total gastric fistula", "format": "in vivo", "experimental": "In three dogs having both pancreatic and total gastric fistula, secretion from the pancreas was induced by infusion of secretin at 2 units/kg-hr. and cholecystokinin at 0.45 unit/kg-hr., and secretion of gastric HCl by infusion of tetragastrin at 0.5 μg/kg-hr. After a steady response was established, each dog received D-Val^2, D-Trp^8 -somatostatin for one hour at 0.25 μg/kg-hr. The peak inhibitory effect expressed as percent change over control for total protein was -72%. This corresponds to the inhibitory effect obtained by administration of about 0.5 μg/kg-hr. of somatostatin."}, "growth hormone secretion": {"test_system": "growth hormone secretion", "assay": "release of growth hormone in sodium pentobarbital-stimulated rats", "format": "in vivo, Spraque-Dawley rats", "conditions": "subcutaneously, serum growth hormone 20 minutes after administration", "experimental": "D-Val^2, D-Trp^8 -somatostatin also was tested for its activity with respect to the release of growth hormone. The procedure which was employed is carried out using normal male Spraque-Dawley rats weighing 100-120 grams (Laboratory Supply Company, Indianapolis, Indiana). The test is a modification of the method of P. Brazeau, W. Vale, and R. Guilleman, Endocrinology, 94, 184 (1974). In this assay, five groups of eight rats each were employed. Sodium pentobarbital was administered intraperitoneally to all of the rats to stimulate growth hormone secretion. One group served as the control and received only saline. Two of the groups received somatostatin, one at 2 μg./rat, subcutaneously, and the other at 50 μg./rat, subcutaneously. The other two groups received D-Val^2, D-Trp^8 -somatostatin, one at 2 μg./rat, subcutaneously, and the other at 50 μg./rat, subcutaneously. The serum concentration of growth hormone was measured 20 minutes after simultaneous administration of sodium pentobarbital and test compound. The degree of inhibition of serum growth hormone concentration then was determined with respect to the control group, and the relative activities of D-Val^2, D-Trp^8 -somatostatin and somatostatin itself were compared. […]"}, "glucagon secretion": {"test_system": "glucagon secretion", "assay": "in vivo inhibition of glucagon secretion upon stimulation with insulin", "parameters": "species or system mongrel dogs", "conditions": "infused at a rate of 0.109 μg/kg/min.", "experimental": "D-Val^2, D-Trp^8 -somatostatin also was evaluated for in vivo activity in inhibiting glucagon secretion upon stimulation with insulin. Normal mongrel dogs of either sex were fasted overnight. After control blood samples had been obtained, an intravenous infusion of saline, somatostatin, or D-Val^2, D-Trp^8 -somatostatin was commenced. After 15 minutes, insulin, 0.3 units/kg., was injected intravenously. The infusion of saline, somatostatin, or the test compound was continued for two hours, and blood samples were obtained at various intervals throughout the test. The total dose of the somatostatin or test compound ranged from 120-260 μg./dog (0.07-0.13 μg/kg/min.). Administration of insulin produced a reduction in the blood glucose concentration of an increase in serum glucagon concentration."}, "[4]": {"conditions": "intravenous infusion over ten minutes"}}, "note": "Bridge positions count the residues as written; N and C are the ends. Square brackets hold non-standard residues; d marks the D form. Peptide text beside a SMILES is read from it."}
{"smiles": "CC(C)[C@@H](NC(=O)[C@H](C)N)C(=O)N[C@H]1CSSC[C@@H](C(=O)O)NC(=O)[C@H](CO)NC(=O)[C@H]([C@@H](C)O)NC(=O)[C@H](Cc2ccccc2)NC(=O)[C@H]([C@@H](C)O)NC(=O)[C@H](CCCCN)NC(=O)[C@@H](Cc2c[nH]c3ccccc23)NC(=O)[C@H](Cc2ccccc2)NC(=O)[C@H](Cc2ccccc2)NC(=O)[C@H](CC(N)=O)NC(=O)[C@H](CCCCN)NC1=O", "note": "[D-Val^2, D-Trp^8 -somatostatin] (H-A[dV]CKNFF[dW]KTFTSC-OH; disulfide 3-14)", "values": [{"measurement": "dose of somatostatin of equivalent effect on gastric acid secretion", "setting": "[1]; effect of 0.25 μg/kg-hr. extrapolated against the dose-response curve of somatostatin", "value": 0.324, "unit": "μg/kg-hr."}, {"measurement": "activity relative to that of somatostatin (gastric acid secretion)", "setting": "[1]; relative potency expressed as percent activity", "value": 130, "unit": "%"}, {"measurement": "inhibition of steady state acid secretion induced by the C-terminal tetrapeptide of gastrin", "setting": "[1]; six dogs, infused at 0.25 μg/kg-hr. for one hour, maximal inhibitory effect, ± standard error of mean", "value": "61.9 ± 3.4", "unit": "%"}, {"measurement": "minimal effective concentration (inhibition of glucagon and insulin secretion)", "setting": "[2]", "value": "about 194 nanograms/kg./min."}, {"measurement": "gut motility activity compared with somatostatin", "setting": "gut motility; based on minimum effective dose", "value": "approximately equivalent to that of somatostatin itself"}, {"measurement": "effect on intralumenal pressure in the pylorus", "setting": "gut motility; [4]", "value": "initially increased the intralumenal pressure in the pylorus and then decreased it"}, {"measurement": "effect on pressure in the duodenum and the antrum", "setting": "gut motility; [4]", "value": "remained depressed throughout the test"}, {"measurement": "dose of somatostatin giving the corresponding inhibitory effect on pancreatic secretion", "setting": "[3]; compared with 0.25 μg/kg-hr. of the analog", "value": "about 0.5 μg/kg-hr."}, {"measurement": "peak inhibitory effect expressed as percent change over control for total protein", "setting": "[3]; three dogs, 0.25 μg/kg-hr. for one hour", "value": -72, "unit": "%"}, {"measurement": "inhibition of the increase in growth hormone secretion over control", "setting": "growth hormone secretion; 2 μg./rat", "value": 21, "unit": "%"}, {"measurement": "inhibition of the increase in growth hormone secretion over control", "setting": "growth hormone secretion; 50 μg./rat", "value": 88, "unit": "%"}, {"measurement": "effect on the rise in serum glucagon concentration produced by insulin hypoglycemia", "setting": "glucagon secretion", "value": "partial inhibition"}]}
